According to BindingDB's records for doi:10.1021/jm00356a028 (1983):
pIC50: −log10 of the molar value.

experiment: Inhibition of HSV-1 DNA polymerase in HSV-1 C42 plaque reduction assay

Row | SMILES | pIC50
1 | COP(=O)(OC)C(=O)Oc1ccc([N+](=O)[O-])cc1 [4-nitrophenyl dimethoxyphosphinecarboxylate oxide] | < 3.30
2 | CCOP(=O)(O)C(=O)Oc1ccc(OC)cc1 [sodium ethyl (4-methoxyphenoxy)carbonylphosphonate] | 3.78
3 | COc1ccc(OC(=O)P(=O)(O)O)cc1 [disodium (4-methoxyphenoxy)carbonylphosphonate] | < 3.30
4 | COP(=O)(OC)C(=O)OC1CCCCC1 [cyclohexyl dimethoxyphosphinecarboxylate oxide] | < 3.30
5 | O=C(O)P(=O)(O)O | 4.13
6 | O=C(Oc1ccccc1)P(=O)(Oc1ccccc1)Oc1ccccc1 [phenyl diphenoxyphosphinecarboxylate oxide] | 4.41
7 | CCOP(=O)(Oc1ccc(OC)cc1)C(=O)Oc1ccccc1 (stereo not given) [phenyl (4-methoxyphenoxy)(ethoxy)phosphinecarboxylate oxide] | 4.01
8 | COP(=O)(O)C(=O)O [disodium methoxy(oxido)phosphinecarboxylate oxide] | < 3.30
9 | COP(=O)(OC)C(=O)OC(C)C [isopropyl dimethoxyphosphinecarboxylate oxide] | < 3.30
10 | O=C(OCc1ccccc1)P(=O)(O)O [disodium (benzyloxy)carbonylphosphonate] | < 3.30
11 | COC(=O)P(=O)(OC)OC12CC3CC(CC(C3)C1)C2 (stereo not given) [methyl (1-adamantyloxy)(methoxy)phosphinecarboxylate oxide] | < 3.30
12 | COP(=O)(OC)C(=O)Oc1ccccc1 [phenyl dimethoxyphosphinecarboxylate oxide] | < 3.30
13 | COC(=O)P(=O)(OC(C)C)OC(C)C [methyl diisopropoxyphosphinecarboxylate oxide] | < 3.30
14 | CCOC(=O)P(=O)(O)OCC [sodium ethyl ethoxycarbonylphosphonate] | < 3.30
15 | CCOC(=O)P(=O)(O)O [disodium ethoxycarbonylphosphonate] | < 3.30
16 | CCCCOC(=O)P(=O)(O)O [disodium butoxycarbonylphosphonate] | < 3.30
17 | COc1ccc(OP(=O)(O)C(=O)O)cc1 [disodium (4-methoxyphenoxy)(oxido)phosphinecarboxylate oxide] | 4.05
18 | CCOC(=O)P(=O)(O)Oc1ccccc1 [sodium phenyl ethoxycarbonylphosphonate] | < 3.30
19 | CCOP(=O)(O)C(=O)O [disodium ethoxy(oxido)phosphinecarboxylate oxide] | < 3.30
20 | CCOP(=O)(OCC)C(=O)Oc1ccc(OC)cc1 [4-methoxyphenyl diethoxyphosphinecarboxylate oxide] | < 3.30
21 | CCCCOP(=O)(O)C(=O)OC [sodium butyl methoxycarbonylphosphonate] | < 3.30
22 | COP(=O)(O)C(=O)Oc1ccccc1 [sodium methyl phenoxycarbonylphosphonate] | < 3.30
23 | CCOC(=O)c1ccc(OC(=O)P(=O)(OCC)OCC)cc1 [4-(ethoxycarbonyl)phenyl diethoxyphosphinecarboxylate oxide] | < 3.30
24 | Cc1ccc(OP(=O)(Oc2ccc(C)cc2)C(=O)Oc2ccccc2)cc1 [phenyl bis(4-methylphenoxy)phosphinecarboxylate oxide] | 4.36
25 | CCCCOP(=O)(OCCCC)C(=O)OC [methyl dibutoxyphosphinecarboxylate oxide] | < 3.30
26 | CCOC(=O)c1ccc(OC(=O)P(=O)(OC)OC)cc1 [4-(ethoxycarbonyl)phenyl dimethoxyphosphinecarboxylate oxide] | < 3.30
27 | O=C(OC1CCCCC1)P(=O)(O)O [disodium (cyclohexyloxy)carbonylphosphonate] | < 3.30
28 | O=C(OCC1CCCC1)P(=O)(O)O [disodium (cyclopentylmethoxy)carbonylphosphonate] | < 3.30

Row | SMILES | pIC50
29 | Cc1ccc(OP(=O)(O)C(=O)Oc2ccccc2)cc1 [sodium 4-methylphenyl phenoxycarbonylphosphonate] | 4.27
30 | COP(=O)(OC)C(=O)OCC1CCCC1 [cyclopentylmethyl dimethoxyphosphinecarboxylate oxide] | < 3.30
31 | COC(=O)P(=O)(O)Oc1c(C)cccc1C [sodium 2,6-dimethylphenyl methoxycarbonylphosphonate] | < 3.30
32 | COC(=O)P(=O)(O)Oc1ccc2c(c1)CCC2 [sodium 2,3-dihydro-1H-inden-5-yl methoxycarbonylphosphonate] | < 3.30
33 | CCOP(=O)(Oc1ccc2c(c1)CCC2)C(=O)OC (stereo not given) [methyl (2,3-dihydro-1H-inden-5-yloxy)(ethoxy)phosphinecarboxylate oxide] | < 3.30
34 | COP(=O)(OC)C(=O)OCc1ccccc1 [benzyl dimethoxyphosphinecarboxylate oxide] | < 3.30
35 | COC(=O)P(=O)(OC)Oc1ccc(C(C)=O)cc1 (stereo not given) [methyl (4-acetylphenoxy)(methoxy)phosphinecarboxylate oxide] | < 3.30
36 | COP(=O)(OC)C(=O)Oc1ccc(Cl)c(Cl)c1 [3,4-dichlorophenyl dimethoxyphosphinecarboxylate oxide] | < 3.30
37 | O=C(O)P(=O)(O)Oc1ccccc1 [disodium oxido(phenoxy)phosphinecarboxylate oxide] | 4.10
38 | O=C(Oc1ccccc1)P(=O)(O)Oc1ccccc1 [sodium phenyl phenoxycarbonylphosphonate] | 4.28
39 | CCOC(=O)c1ccc(OC(=O)P(=O)(O)O)cc1 [disodium [4-(ethoxycarbonyl)phenoxy]carbonylphosphonate] | < 3.30
40 | O=C(Oc1ccccc1)P(=O)(O)O [disodium phenoxycarbonylphosphonate] | < 3.30
41 | CCCCOC(=O)P(=O)(OC)OC [butyl dimethoxyphosphinecarboxylate oxide] | < 3.30
42 | CC(C)OC(=O)P(=O)(O)O [disodium isopropoxycarbonylphosphonate] | < 3.30
43 | CCOP(=O)(Oc1c(C)cccc1C)C(=O)OC (stereo not given) [methyl (2,6-dimethylphenoxy)(ethoxy)phosphinecarboxylate oxide] | < 3.30
44 | CCOP(=O)(Oc1ccc(C(C)=O)cc1)C(=O)OC (stereo not given) [methyl (4-acetylphenoxy)(ethoxy)phosphinecarboxylate oxide] | < 3.30
45 | Cc1cccc(C)c1OP(=O)(O)C(=O)O [disodium (2,6-dimethylphenoxy)(oxido)phosphinecarboxylate oxide] | < 3.30
46 | O=C(Oc1ccc(Cl)cc1)P(=O)(O)O [disodium (4-chlorophenoxy)carbonylphosphonate] | 3.60
47 | Cc1ccc(OP(=O)(O)C(=O)O)cc1 [disodium (4-methylphenoxy)(oxido)phosphinecarboxylate oxide] | 4.06
48 | COP(=O)(O)C(=O)OCc1ccccc1 [sodium methyl (benzyloxy)carbonylphosphonate] | < 3.30
49 | O=C(O)P(=O)(O)Oc1ccc2c(c1)CCC2 [disodium (2,3-dihydro-1H-inden-5-yloxy)(oxido)phosphinecarboxylate oxide] | 4.14
50 | CCOP(=O)(OCC)C(=O)Oc1ccc(Cl)cc1 [4-chlorophenyl diethoxyphosphinecarboxylate oxide] | < 3.30
51 | Cc1ccc(OC(=O)P(=O)(O)O)cc1 [disodium (4-methylphenoxy)carbonylphosphonate] | < 3.30
52 | CC(C)OP(=O)(OC(C)C)C(=O)Oc1ccc([N+](=O)[O-])cc1 [4-nitrophenyl diisopropoxyphosphinecarboxylate oxide] | < 3.30
53 | CCOP(=O)(O)C(=O)Oc1ccc(Cl)cc1 [sodium ethyl (4-chlorophenoxy)carbonylphosphonate] | 3.30
54 | COP(=O)(OC)C(=O)Oc1ccc(C)cc1 [4-methylphenyl dimethoxyphosphinecarboxylate oxide] | < 3.30
55 | O=C(O)P(=O)(O)OC12CC3CC(CC(C3)C1)C2 [disodium (1-adamantyloxy)(oxido)phosphinecarboxylate oxide] | < 3.30
